Laboratory results from paper PMC10002517, “Inhibition of Transglutaminase 2 as a Therapeutic Strategy in Celiac Disease—In Vitro Studies in Intestinal Cells and Duodenal Biopsies” (International Journal of Molecular Sciences, 2023).

Tests used:
Caco-2 cells = assay: Resazurin-based cell viability assay (PrestoBlue HS); design: species or system human; conditions: confluent Caco-2 cells, 24 h in medium, n = 3
Protocol: The cell viability of Caco-2 cells was examined using PrestoBlue HS (A13261, (Thermo Fisher Scientific). In brief, Caco-2 cells (7–8 days after confluency) were incubated with PX-12 or ERW1041 at the indicated concentrations for 24 h in full medium. As a positive control, cells were incubated with 4% PFA for 10 min. After washing with PBS, cells were incubated with PrestoBlue HS diluted 1:10 in culture medium for 2 h at 37 °C. Fluorometric examination was conducted using a Clariostar Plus (no well scan mode, bottom optic measurement, excitation 545 nm, emission 600 nm, fixed gain: 800). Every experiment was performed in duplicates with at least three technical replicates. Normalization was performed against conditions, where cells were not treated with TG2 inhibitors.

[1] = tested on: transepithelial passage of P56-88 in Caco-2 cells; assay: Transepithelial transport of promofluor-conjugated gliadin peptide P56-88 across Caco-2 monolayers (fluorometry); assay type: cell-based, human; conditions: 3 h; for transepithelial passage of P56-88 (relative basal fluorescence): 7 µg/mL peptide apical in HBSS, normalized to no inhibitor, mean ± SD, n = 3
Protocol: Transepithelial transport of immunogenic and toxic gliadin peptides were examined in Caco-2 cells 7–14 days after confluency. Caco-2 cells were seeded on semi-permeable transwell supports (ThinCert, culture surface: 33.6 mm², pore size: 0.4 µm) in 24-well plates (Greiner Bio One, Pleidelsheim, Germany). Prior to the transport experiments, the integrity of the cell monolayer was tested by measuring the transepithelial electric resistance (TEER) using a volt-ohm meter (Millipore, Schwalbach, Germany). Monolayers with insufficient TEER (<350 Ω/cm^2) were omitted. The synthesis and purification of promofluor-conjugated gliadin peptides were described elsewhere. Cells were either incubated with the immunogenic peptide P56-88 ([…]) or the toxic gliadin peptide P31-43 (LGQQQPFPPQQPY), 7 µg/mL each, in Hank’s balanced salt solution (HBSS) for 3 h. To investigate the role of TG2 on the transport of gliadin peptides, incubation was performed in the presence of ERW1041 and PX-12. After 3 h, basal and apical supernatants were collected, and the relative fluorescence of the basal compartment was quantified using a FLUOstar Optima (BMG Labtech) microplate reader. Background subtraction was performed against conditions, where no labeled peptides were used. Normalization was performed against conditions, where no inhibitors were used.

[2] = molecular target: T1, human transglutaminase 2 (TG2) (Homo sapiens, UniProt P21980); assay: TG2-mediated cross-linking (transamidation) of pepsin-/trypsin-digested gliadin (PTG) on immobilized TG2; assay type: biochemical; conditions: for TG2-mediated cross-linking of PTG: 10 nM TG2 coated, 10 µg/mL PTG, 1 h 37 °C, normalized to TG2 without inhibitor, mean ± SD, n = 4
T1 construct: purchased Zedira, Darmstadt, Germany T034
T1 sequence (P21980 1-687): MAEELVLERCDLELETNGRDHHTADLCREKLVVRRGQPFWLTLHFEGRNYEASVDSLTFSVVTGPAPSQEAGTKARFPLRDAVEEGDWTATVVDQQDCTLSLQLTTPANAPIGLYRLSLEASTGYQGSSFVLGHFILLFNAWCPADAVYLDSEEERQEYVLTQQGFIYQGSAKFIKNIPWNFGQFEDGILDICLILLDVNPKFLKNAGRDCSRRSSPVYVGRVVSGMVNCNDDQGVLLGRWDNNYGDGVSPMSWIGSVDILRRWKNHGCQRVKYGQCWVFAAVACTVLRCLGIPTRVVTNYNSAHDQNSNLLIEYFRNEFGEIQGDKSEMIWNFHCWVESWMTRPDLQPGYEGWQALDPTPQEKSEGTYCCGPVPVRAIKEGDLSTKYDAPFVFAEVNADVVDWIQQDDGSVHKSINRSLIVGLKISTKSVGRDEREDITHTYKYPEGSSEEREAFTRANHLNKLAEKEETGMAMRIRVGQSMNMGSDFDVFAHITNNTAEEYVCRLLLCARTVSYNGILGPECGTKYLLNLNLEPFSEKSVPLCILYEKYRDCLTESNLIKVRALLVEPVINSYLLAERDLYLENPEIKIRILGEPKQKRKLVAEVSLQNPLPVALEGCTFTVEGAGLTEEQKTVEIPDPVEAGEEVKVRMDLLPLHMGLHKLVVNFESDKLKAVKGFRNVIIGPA
Protocol: A tissue-culture-treated 96-well plate (83.3924, Sarstedt, Nümbrecht, Germany) was coated for 1 h at 37°C with 10 nM TG2 (T034, Zedira, Darmstadt, Germany) in 50 mM Tris, 1 mM EDTA, 5 mM CaCl2 (pH 7.5) buffer containing 10 mM DTT. After three washes with PBS, the plate was blocked with 2% bovine serum albumin (BSA, Carl Roth GmbH, Karlsruhe, Germany) in PBS for 30 min at room temperature. Then, incubation with 10 µg/mL of pepsin-/trypsin-digested gliadin (PTG, T004, Zedira) ± inhibitors was performed for 1 h at 37 °C. After three washes with PBS, the primary antibody directed against gliadin (1:1000, clone XGY4, Zedira) was applied in BSA 2% at 4 °C overnight on an orbital shaker. The next day, the secondary antibody directed against mouse IgG (1:1000; sc-516102, Santa Cruz Biotechnology, Dallas, TX, USA) was incubated in BSA 2% for 1 h at room temperature on an orbital shaker. After three washes with phosphate buffered saline (PBS), the HRP-substrate TMB (tetramethylbenzidine, Sigma-Aldrich, Darmstadt, Germany) was added (100 µL per well). Photometric quantitation at 655 nm was performed after 15 min using a Clariostar Plus (BMG Labtech, Ortenberg, Germany) microplate reader.

[3] = tested on: uptake of P56-88 by Caco-2 cells; assay: Epithelial uptake of P56-88 by Caco-2 cells (confocal microscopy); assay type: cell-based, human; conditions: confocal microscopy
Protocol: For microscopic evaluation, Caco-2 cells were seeded on polymer-covered µ-slides (80826, Ibidi) and incubated for 1 h with labeled gliadin peptides in the presence of TG2 inhibitors. After three washes with PBS, cells were fixed with 4% paraformaldehyde. Nuclear staining was performed for 10 min using Hoechst fluorescent stain (1:1000 in PBS). Imaging was done using a confocal laser scanning microscope (TE2000-E, Nikon) and a 60× Plan Apo (NA 1.41) immersion oil objective. Processing of z-stacks, including 3D reconstruction, was performed using ImageJ [46]. For quantitation, z-stack images were taken with the same microscope settings. Using ImageJ, maximum intensity projections were obtained of the z-stack images, and the fluorescence intensity was measured within the whole image.

[4] = up to a concentration of 100 µM
[5] = 1 h incubation with peptide and inhibitor, n = 3

SMILES	cell viability (Caco-2 cells; 200 µM and 500 µM)	cell viability (Caco-2 cells; [4])	transepithelial passage of P56-88 (relative basal fluorescence) ([1]; 1 µM inhibitor) [%]	transepithelial passage of P56-88 (relative basal fluorescence) ([1]; 100 µM inhibitor) [%]	TG2-mediated cross-linking of PTG ([2]; 10 µM inhibitor) [%]	TG2-mediated cross-linking of PTG ([2]; 100 µM inhibitor) [%]	uptake of P56-88 by Caco-2 cells ([3]; 100 µM inhibitor, 1 h)	uptake of P56-88 by Caco-2 cells [3, 5]	effect on the epithelial translocation of P56-88 [1]	reduction of enzymatic modification of gliadin ([2]; at 10 µM and 100 µM)
O=C(NC[C@@H]1CC(Br)=NO1)[C@@H]1CCCN1C(=O)OCc1cnc2ccccc2c1 [ERW1041]	significantly reduced cell viability	did not affect cell viability	33 ± 22	24 ± 16	48 ± 8	11 ± 2	nearly absent	reduced the uptake of P56-88 in a dose-dependent manner		
CCC(C)SSc1ncc[nH]1 (stereo not drawn) [PX-12, 2-[(1-methylpropyl)dithio]-1H-imidazole]	significantly reduced cell viability	did not affect cell viability			15 ± 3	5 ± 1		did not affect the uptake of P56-88	no significant effect	more than 80%
